According to patent US9834542B2, “LXR modulators” (BRISTOL-MYERS SQUIBB COMPANY, priority 2013, dated 2017):

Target: T1, LXRβ (Homo sapiens, UniProt P55055)
T1 construct: Co-transfection expression plasmids, comprising full-length LXRα (pCMX-h LXRα[…] or LXRβ (pCMX-hLXRβ)); expressed in transfected cells; host or cells: CV-1 African Green Monkey Kidney Cells
T1 sequence (P55055 1-460): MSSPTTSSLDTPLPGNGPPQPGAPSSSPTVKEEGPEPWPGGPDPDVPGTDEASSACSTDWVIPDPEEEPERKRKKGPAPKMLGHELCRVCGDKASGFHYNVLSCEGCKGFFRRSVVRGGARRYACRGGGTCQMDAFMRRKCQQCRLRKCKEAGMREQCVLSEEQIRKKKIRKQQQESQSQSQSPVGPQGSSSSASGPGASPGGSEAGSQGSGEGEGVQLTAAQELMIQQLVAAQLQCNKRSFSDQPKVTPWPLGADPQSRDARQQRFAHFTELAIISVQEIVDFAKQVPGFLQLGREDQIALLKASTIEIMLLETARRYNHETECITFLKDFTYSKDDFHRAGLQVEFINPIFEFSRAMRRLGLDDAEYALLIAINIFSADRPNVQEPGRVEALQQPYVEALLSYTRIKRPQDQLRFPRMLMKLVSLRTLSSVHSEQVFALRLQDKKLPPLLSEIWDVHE
T1 sequence (P19793 1-462 partner): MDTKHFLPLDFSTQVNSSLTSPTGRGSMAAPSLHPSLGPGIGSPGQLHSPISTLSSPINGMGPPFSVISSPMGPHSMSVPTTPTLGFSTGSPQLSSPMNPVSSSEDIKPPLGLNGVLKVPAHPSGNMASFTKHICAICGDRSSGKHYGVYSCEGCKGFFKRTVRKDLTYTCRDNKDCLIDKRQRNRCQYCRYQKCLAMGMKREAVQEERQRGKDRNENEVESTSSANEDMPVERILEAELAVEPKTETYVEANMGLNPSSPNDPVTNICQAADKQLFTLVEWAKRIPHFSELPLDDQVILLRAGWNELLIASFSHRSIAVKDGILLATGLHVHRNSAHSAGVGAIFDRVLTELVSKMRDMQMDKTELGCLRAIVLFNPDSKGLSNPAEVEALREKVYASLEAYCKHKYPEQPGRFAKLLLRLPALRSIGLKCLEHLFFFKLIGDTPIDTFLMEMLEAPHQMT
Assay: Co-transfection assay (LXRE luciferase reporter), LXRβ
Assay type: cell-based
Parameters: % Efficacy: concentration or dose not given beside the values
Conditions: for EC50: CV-1 cells transfected with pCMX-hLXRβ and LXREx1-Tk-Luciferase, 20 hours incubation; for Emax: read-out: % Efficacy
Method in brief: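 CV-1 / pCMX-hLXRβ + LXREx1-Tk-Luc + β-gal; cpd 20 h, 37 °C, ≤0.5% DMSO; Steady-Glo luminescence. 11-pt ½-log curves, duplicate wells, sigmoidal fit → EC50; % efficacy vs high-control agonist, DMSO low control; mean of ≥2 expts.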

[1] = LXRβ co-transfection, relative to high control 1-(2,4-difluorobenzyl)-2-oxo-6-(4-phenoxyphenyl)-4-(trifluoromethyl)-1,2-dihydropyridine-3-carbonitrile

`CS(=O)(=O)c1cc(-c2ccc(-n3cc(C(F)(F)F)nc3Cl)c(-n3nncc3-c3ccc(Cl)cc3)c2)cc(F)c1CO` [Example 144, {3′-[5-(4-chlorophenyl)-1H-1,2,3-triazol-1-yl]-4′-[2-chloro-4-(trifluoromethyl)-1H-imidazol-1-yl]-3-fluoro-5-(methylsulfonyl)biphenyl-4-yl}methanol] was tested, and the EC50 was 110 nM and the Emax [1] was 98%.
Compound `Cc1nc(C(F)(F)F)cn1-c1ccc(-c2cccc(S(C)(=O)=O)c2)cc1-c1ccnn1-c1ccc(Cl)nc1` [Example 296, 2-chloro-5-(5-(4-(2-methyl-4-(trifluoromethyl)-1H-imidazol-1-yl)-3′-(methylsulfonyl)biphenyl-3-yl)-1H-pyrazol-1-yl)pyridine] has an EC50 of 572 nM and an Emax [1] of 75%.
In the case of `Cc1nc(C(F)(F)F)c(Cl)n1-c1ccc(-c2cccc(S(C)(=O)=O)c2)cc1-n1nncc1-c1ccc(Cl)cc1Cl` [Example 59, 1-{4-[5-chloro-2-methyl-4-(trifluoromethyl)-1H-imidazol-1-yl]-3′-(methylsulfonyl)biphenyl-3-yl}-5-(2,4-dichlorophenyl)-1H-1,2,3-triazole], the EC50 is reported as 218 nM and the Emax [1] is reported as 95%.
Compound `Cc1nc(-c2cc(-c3cccc(S(C)(=O)=O)c3)ccc2-n2cc(C(F)(F)F)nc2C)c(-c2cccnc2Cl)o1` [Example 552, 5-(2-chloropyridin-3-yl)-2-methyl-4-(4-(2-methyl-4-(trifluoromethyl)-1H-imidazol-1-yl)-3′-(methylsulfonyl)-[1,1′-biphenyl]-3-yl)oxazole] has an EC50 of 913 nM and an Emax [1] of 82%.
`Cc1nc(C(F)F)cn1-c1ccc(-c2cccc(S(C)(=O)=O)c2)cc1-n1nncc1-c1ccc(Cl)cc1Cl` [Example 163, 5-(2,4-dichlorophenyl)-1-{4-[4-(difluoromethyl)-2-methyl-1H-imidazol-1-yl]-3′-(methylsulfonyl)biphenyl-3-yl}-1H-1,2,3-triazole] gave an EC50 of 1600 nM and an Emax [1] of 61%.
With `Cc1nc(C(F)(F)F)cn1-c1ccc(-c2cccc(S(C)(=O)=O)c2)cc1-c1nc(CCO)oc1-c1ccc2c(c1)OC(F)(F)O2` [Example 531] the EC50 was 422 nM and the Emax [1] was 74%.
With `Cc1nc(C(F)(F)F)cn1-c1ccc(-c2cccc(S(C)(=O)=O)c2)cc1-n1nncc1-c1ccc2occc2c1` [Example 86, 5-(1-benzofuran-5-yl)-1-{3′-(methylsulfonyl)-4-[2-methyl-4-(trifluoromethyl)-1H-imidazol-1-yl]biphenyl-3-yl}-1H-1,2,3-triazole] the EC50 was 583 nM and the Emax [1] was 77%.
Work on `Cc1cc(-c2cc(-c3cc(F)c(CO)c(S(C)(=O)=O)c3)ccc2-n2cc(C(F)(F)F)nc2C)n(-c2ccc(Cl)cc2)n1` [Example 290, {3′-[1-(4-chlorophenyl)-3-methyl-1H-pyrazol-5-yl]-3-fluoro-5-(methylsulfonyl)-4′-[2-methyl-4-(trifluoromethyl)-1H-imidazol-1-yl]biphenyl-4-yl}methanol] yielded an EC50 of 30 nM and an Emax [1] of 43%.
Work on `CCc1nc(-c2cc(-c3cc(F)c(CO)c(S(C)(=O)=O)c3)ccc2-n2cc(C(F)(F)F)nc2C)c(-c2ccc(OC(F)(F)F)cc2)o1` [Example 556, (3′-(2-ethyl-5-(4-(trifluoromethoxy)phenyl)oxazol-4-yl)-3-fluoro-4′-(2-methyl-4-(trifluoromethyl)-1H-imidazol-1-yl)-5-(methylsulfonyl)-[1,1′-biphenyl]-4-yl)methanol] yielded an EC50 of 13 nM and an Emax [1] of 100%.
With `COc1ncc(-c2oc(C)nc2-c2cc(-c3cc(F)c(CO)c(S(C)(=O)=O)c3)ccc2-n2cc(C(F)(F)F)nc2C)cc1F` [Example 440, (3-fluoro-3′-(5-(5-fluoro-6-methoxypyridin-3-yl)-2-methyloxazol-4-yl)-4′-(2-methyl-4-(trifluoromethyl)-1H-imidazol-1-yl)-5-(methylsulfonyl)biphenyl-4-yl)methanol] the EC50 was 214 nM and the Emax [1] was 75%.
`Cc1nc(C(F)(F)F)cn1-c1ccc(-c2cc(F)c(CO)c(S(C)(=O)=O)c2)cc1-c1ccnn1-c1ccc(Cl)cc1` [Example 288, {3′-[1-(4-chlorophenyl)-1H-pyrazol-5-yl]-3-fluoro-5-(methylsulfonyl)-4′-[2-methyl-4-(trifluoromethyl)-1H-imidazol-1-yl]biphenyl-4-yl}methanol] was tested, and the EC50 was 74 nM and the Emax [1] was 81%.
With `CS(=O)(=O)c1cccc(-c2cc(F)c(-n3cnc(C(F)(F)F)c3)c(-n3nncc3-c3ccc(Cl)cc3Cl)c2)c1` [Example 191, 5-(2,4-dichlorophenyl)-1-{5-fluoro-3′-(methylsulfonyl)-4-[4-(trifluoromethyl)-1H-imidazol-1-yl]biphenyl-3-yl}-1H-1,2,3-triazole] the EC50 was 452 nM and the Emax [1] was 102%.
Work on `Cc1nc(-c2cc(-c3cc(F)c(CO)c(S(C)(=O)=O)c3)ccc2-n2cc(C(F)(F)F)nc2C)c(-c2ccc(C)c(F)c2)o1` [Example 503, (3-fluoro-3′-(5-(3-fluoro-4-methylphenyl)-2-methyloxazol-4-yl)-4′-(2-methyl-4-(trifluoromethyl)-1H-imidazol-1-yl)-5-(methylsulfonyl)biphenyl-4-yl)methanol] yielded an EC50 of 45 nM and an Emax [1] of 71%.
`Cc1nc(-c2cc(-c3cc(F)c(CO)c(S(C)(=O)=O)c3)ccc2-n2cc(C(F)(F)F)nc2C)c(-c2ccc(Cl)cc2Cl)o1` [Example 488, (3′-(5-(2,4-dichlorophenyl)-2-methyloxazol-4-yl)-3-fluoro-4′-(2-methyl-4-(trifluoromethyl)-1H-imidazol-1-yl)-5-(methylsulfonyl)biphenyl-4-yl)methanol] was tested, and the EC50 was 17 nM and the Emax [1] was 66%.
`Cc1nc(-c2cc(-c3cc(F)c(CO)c(S(C)(=O)=O)c3)ccc2-n2cc(C(F)(F)F)nc2C)c(-c2ccc(Cl)cc2F)o1` [Example 485, (3′-(5-(4-chloro-2-fluorophenyl)-2-methyloxazol-4-yl)-3-fluoro-4′-(2-methyl-4-(trifluoromethyl)-1H-imidazol-1-yl)-5-(methylsulfonyl)biphenyl-4-yl)methanol] was tested, and the EC50 was 32 nM and the Emax [1] was 55%.
In the case of `Cc1nc(C(F)F)cn1-c1ccc(-c2cccc(S(C)(=O)=O)c2)cc1-n1nncc1-c1ccc(Cl)cc1` [Example 162, 5-(4-chlorophenyl)-1-{4-[4-(difluoromethyl)-2-methyl-1H-imidazol-1-yl]-3′-(methylsulfonyl)biphenyl-3-yl}-1H-1,2,3-triazole], the EC50 is reported as 977 nM and the Emax [1] is reported as 65%.
`Cc1nc(-c2cc(-c3cc(F)c(CO)c(S(C)(=O)=O)c3)ccc2-n2cc(C(C)O)nc2C)c(-c2ccc3c(c2)OC(F)(F)O3)o1` (single isomer, unassigned) [Example 515, 1-(1-(3-(5-(2,2-difluorobenzo[d][1,3]dioxol-5-yl)-2-methyloxazol-4-yl)-3′-fluoro-4′-(hydroxymethyl)-5′-(methylsulfonyl)-[1,1′-biphenyl]-4-yl)-2-methyl-1H-imidazol-4-yl)ethanol] was tested, and the EC50 was 1210 nM and the “% Efficacy” value [1] was 19%.
Compound `Cc1nc(-c2cc(-c3cc(F)c(CO)c(S(C)(=O)=O)c3)ccc2-n2cc(C(F)(F)F)nc2C)c(-c2ccccc2OC(F)F)o1` [Example 548, (3′-(5-(2-(difluoromethoxy)phenyl)-2-methyloxazol-4-yl)-3-fluoro-4′-(2-methyl-4-(trifluoromethyl)-1H-imidazol-1-yl)-5-(methylsulfonyl)-[1,1′-biphenyl]-4-yl)methanol] has an EC50 of 84 nM and an Emax [1] of 43%.
